Measurements: ChEMBL document CHEMBL5055643, “Sophoraflavanone G Resensitizes ABCG2-Overexpressing Multidrug-Resistant Non-Small-Cell Lung Cancer Cells to Chemotherapeutic Drugs” (J Nat Prod, 2021)

How the values were obtained:
ABCG2 = target: T1, ABCG2 (Homo sapiens, UniProt Q9UNQ0); test: Inhibition of ABCG2 in mitoxantrone-selected ABCG2-overexpressing human NCI-H460/MX20 cells assessed as increase in intracellular mitoxantrone accumulation at 20 uM incubated for 1 hr in presence of mitoxantrone by flow cytometry; format: cell-based; details: probe mitoxantrone
T1 sequence (Q9UNQ0 whole entry): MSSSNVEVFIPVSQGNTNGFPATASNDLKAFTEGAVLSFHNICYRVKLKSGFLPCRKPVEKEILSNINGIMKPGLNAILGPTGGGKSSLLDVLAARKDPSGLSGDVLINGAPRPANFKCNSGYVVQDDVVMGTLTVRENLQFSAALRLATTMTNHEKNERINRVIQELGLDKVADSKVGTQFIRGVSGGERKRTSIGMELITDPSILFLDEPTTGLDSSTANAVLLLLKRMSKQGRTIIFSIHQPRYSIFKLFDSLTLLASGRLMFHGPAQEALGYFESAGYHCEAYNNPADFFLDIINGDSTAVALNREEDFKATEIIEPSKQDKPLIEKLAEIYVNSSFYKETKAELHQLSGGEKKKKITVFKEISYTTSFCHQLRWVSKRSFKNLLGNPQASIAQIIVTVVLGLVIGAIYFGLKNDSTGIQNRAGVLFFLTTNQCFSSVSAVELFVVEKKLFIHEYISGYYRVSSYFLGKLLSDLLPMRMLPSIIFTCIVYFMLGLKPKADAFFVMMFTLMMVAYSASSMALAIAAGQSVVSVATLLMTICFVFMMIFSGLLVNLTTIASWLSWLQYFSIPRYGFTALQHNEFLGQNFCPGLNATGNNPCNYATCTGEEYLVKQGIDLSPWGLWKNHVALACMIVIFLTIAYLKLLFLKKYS

KB 3-1 [1] = test: Chemo-sensitizing activity against human KB 3-1 cells assessed as reversal fold at 5 uM measured after 72 hrs in presence of vincristine by CCK8 assay relative to control; format: functional
NCI-H460 [2] = test: Chemo-sensitizing activity against human NCI-H460 cells assessed as reversal fold at 1 uM measured after 72 hrs in presence of topotecan by CCK8 assay relative to control; format: functional
[3] = Cytotoxicity against ABCG2-overexpressing human HEK293/482R cells assessed as cell viability at 1 to 5 uM measured after 72 hrs by CCK8 assay; format: ADME, cell-based; details: ABCG2-overexpressing HEK293/482R cells, dose 1-5 µM, read-out: Activity
NCI/ADR-RES [4] = test: Chemo-sensitizing activity against ABCB1-overexpressing human NCI/ADR-RES cells assessed as reversal fold at 1 uM measured after 72 hrs in presence of paclitaxel by CCK8 assay relative to control; format: functional
KB 3-1 [5] = test: Chemo-sensitizing activity against human KB 3-1 cells assessed as reversal fold at 2 uM measured after 72 hrs in presence of vincristine by CCK8 assay relative to control; format: functional
NCI-H460 [6] = test: Chemo-sensitizing activity against human NCI-H460 cells assessed as reversal fold at 5 uM measured after 72 hrs in presence of mitoxantrone by CCK8 assay relative to control; format: functional
NCI-H460 [7] = test: Chemo-sensitizing activity against human NCI-H460 cells assessed as reversal fold at 2 uM measured after 72 hrs in presence of mitoxantrone by CCK8 assay relative to control; format: functional
NCI-H460 [8] = test: Chemo-sensitizing activity against mitoxantrone-selected ABCG2-overexpressing human NCI-H460/MX20 cells assessed as reversal fold at 2 uM measured after 72 hrs in presence of SN-38 by CCK8 assay relative to control; format: functional
HEK293 [9] = test: Chemo-sensitizing activity against human HEK293 cells assessed as reversal fold at 5 uM measured after 72 hrs in presence of topotecan by CCK8 assay relative to control; format: functional
NCI-H460 [10] = test: Chemo-sensitizing activity against mitoxantrone-selected ABCG2-overexpressing human NCI-H460/MX20 cells assessed as reversal fold at 5 uM measured after 72 hrs in presence of mitoxantrone by CCK8 assay relative to control; format: functional
OVCAR-8 [11] = test: Chemo-sensitizing activity against human OVCAR-8 cells assessed as reversal fold at 1 uM measured after 72 hrs in presence of vincristine by CCK8 assay relative to control; format: functional
KB-V1 [12] = test: Chemo-sensitizing activity against ABCB1-overexpressing human KB-V1 cells assessed as reversal fold at 5 uM measured after 72 hrs in presence of paclitaxel by CCK8 assay relative to control; format: functional
NCI/ADR-RES [13] = test: Chemo-sensitizing activity against ABCB1-overexpressing human NCI/ADR-RES cells assessed as reversal fold at 5 uM measured after 72 hrs in presence of colchicine by CCK8 assay relative to control; format: functional
[14] = Cytotoxicity against human HEK293 cells assessed as cell viability at 1 to 5 uM measured after 72 hrs by CCK8 assay; format: cell-based; details: dose 1-5 µM, read-out: Activity
HEK293 [15] = test: Chemo-sensitizing activity against ABCG2-overexpressing human HEK293/482R cells assessed as reversal fold at 1 uM measured after 72 hrs in presence of SN-38 by CCK8 assay relative to control; format: functional
[16] = target: T2, Broad substrate specificity ATP-binding cassette transporter ABCG2 (Homo sapiens, UniProt Q9UNQ0); test: Inhibition of ABCG2 in mitoxantrone-selected ABCG2-overexpressing human NCI-H460/MX20 cells assessed as increase in intracellular mitoxantrone accumulation incubated for 1 hr in presence of mitoxantrone by flow cytometry; format: cell-based
T2 sequence (Q9UNQ0 whole entry): T1 sequence (Q9UNQ0 whole entry)

OVCAR-8 [17] = test: Chemo-sensitizing activity against human OVCAR-8 cells assessed as reversal fold at 2 uM measured after 72 hrs in presence of paclitaxel by CCK8 assay relative to control; format: functional
A549 = test: Chemo-sensitizing activity against becatecarin-selected ABCG2-overexpressing human A549/Bec150 cells assessed as reversal fold at 5 uM measured after 72 hrs in presence of topotecan by CCK8 assay relative to control; format: functional
HEK293 [18] = test: Chemo-sensitizing activity against human HEK293 cells assessed as reversal fold at 5 uM measured after 72 hrs in presence of mitoxatrone by CCK8 assay relative to control; format: functional
KB-V1 [19] = test: Chemo-sensitizing activity against ABCB1-oveexpressing human KB-V1 cells assessed as reversal fold at 2 uM measured after 72 hrs in presence of colchicine by CCK8 assay relative to control; format: functional
HEK293 [20] = test: Chemo-sensitizing activity against ABCB1-overexpressing human HEK293/MDR19 cells assessed as reversal fold at 5 uM measured after 72 hrs in presence of colchicine by CCK8 assay relative to control; format: functional
OVCAR-8 [21] = test: Chemo-sensitizing activity against human OVCAR-8 cells assessed as reversal fold at 5 uM measured after 72 hrs in presence of colchicine by CCK8 assay relative to control; format: functional
HEK293 [22] = test: Chemo-sensitizing activity against ABCB1-overexpressing human HEK293/MDR19 cells assessed as reversal fold at 2 uM measured after 72 hrs in presence of paclitaxel by CCK8 assay relative to control; format: functional
NCI-H460 [23] = test: Chemo-sensitizing activity against human NCI-H460 cells assessed as reversal fold at 2 uM measured after 72 hrs in presence of SN-38 by CCK8 assay relative to control; format: functional
HEK293 [24] = test: Chemo-sensitizing activity against human HEK293 cells assessed as reversal fold at 5 uM measured after 72 hrs in presence of SN-38 by CCK8 assay relative to control; format: functional

Compound: C=C(C)[C@H](CC=C(C)C)Cc1c(O)cc(O)c2c1O[C@H](c1ccc(O)cc1O)CC2=O [SOPHORAFLAVANONE G]
- inhibition at 1 h, 20 µM (ABCG2): 100%
- fold change (FC) (KB 3-1 [1]): 1.7
- fold change (FC) (NCI-H460 [2]): 1.6
- viability at 72 h, up to 5 µM [3]: > 90%
- fold change (FC) (NCI/ADR-RES [4]): 1
- fold change (FC) (KB 3-1 [5]): 1.2
- fold change (FC) (NCI-H460 [6]): 2.2
- fold change (FC) (NCI-H460 [7]): 2.4
- fold change (FC) (NCI-H460 [8]): 3.7
- fold change (FC) (HEK293 [9]): 0.8
- fold change (FC) (NCI-H460 [10]): 7.6
- fold change (FC) (OVCAR-8 [11]): 1
- fold change (FC) (KB-V1 [12]): 1.6
- fold change (FC) (NCI/ADR-RES [13]): 0.7
- viability at 72 h, 5 µM [14]: > 90%
- fold change (FC) (HEK293 [15]): 2.1
- IC50 [16]: 2.12 µM
- inhibition (INH) ([16]; human, nci-h460, 1 h, time 1 hrs): Dose-dependent effect
- fold change (FC) (OVCAR-8 [17]): 1
- fold change (FC) (A549): 2.9
- fold change (FC) (HEK293 [18]): 1.1
- fold change (FC) (KB-V1 [19]): 0.9
- fold change (FC) (HEK293 [20]): 0.6
- fold change (FC) (OVCAR-8 [21]): 1.1
- fold change (FC) (HEK293 [22]): 1.2
- fold change (FC) (NCI-H460 [23]): 1.7
- fold change (FC) (HEK293 [24]): 1
